Data reported in US9750759B2, “Antitumoral compounds” (priority 2008, dated 2017).
Like-named read-outs stand apart in the source and are kept apart here.

Key:
Assay in all cases: cells
Type in all cases: cell-based
A549 = details: Homo sapiens; for CC50: read-out: LC50; for GI50: concentration that produces 50% growth inhibition; for IC (total growth inhibition): read-out: TGI
Excerpt: (§1) The aim of this assay is to evaluate the in vitro cytostatic (ability to delay or arrest tumor cell growth) or cytotoxic (ability to kill tumor cells) activity of the samples being tested.
(§2) A colorimetric type of assay, using sulforhodamine B (SRB) reaction has been adapted for a quantitative measurement of cell growth and viability (following the technique described by Skehan P et al. J. Natl. Cancer Inst. 1990, 82, 1107-1112).
(§3) This form of assay employs SBS-standard 96-well cell culture microplates (Faircloth et al. Methods in cell science, 1988, 11(4), 201-205; Mosmann et al, Journal of Immunological. Methods, 1983, 65(1-2), 55-63). All the cell lines used in this study, derived from different types of human cancer, were obtained from the American Type Culture Collection (ATCC).
(§4) Cells were maintained in Dulbecco's Modified Eagle Medium (DMEM) supplemented with 10% Fetal Bovine Serum (FBS), 2 mM L-glutamine, 100 U/mL penicillin and 100 U/mL streptomycin at 37° C., 5% CO2 and 98% humidity. For the experiments, cells were harvested from subconfluent cultures using trypsinization and resuspended in fresh medium before counting and plating.
(§5) Cells were seeded in 96 well microtiter plates at 5×10^3 cells per well in aliquots of 150 μL, and allowed to attach to the plate surface for 18 hours in drug free medium. One control (untreated) plate of each cell line was fixed (as described below) and used for time zero reference value. Afterwards, test samples were added to the cultures in ten serial dilutions, in aliquots of 50 μL, ranging from 10 to 0.00262 μg/mL. After 48 hours exposure, the antitumor effect was estimated by the SRB method: Briefly, cells were washed twice with PBS, fixed for 15 min in 1% glutaraldehyde solution, rinsed twice in PBS, and stained in 0.4% SRB solution for 30 min at room temperature. Cells were then rinsed several times with 1% acetic acid solution and air-dried. SRB was then extracted in 10 mM trizma base solution and the absorbance measured in an automated spectrophotometric plate reader at 490 nm. Cell survival was expressed as percentage of control cell growth. The final effect of the sample being tested was estimated by applying the NCI algorithm (Boyd M R and Paull K D. Drug Dev. Res. 1995, 34, 91-104).
(§6) Using the mean±SD of triplicate cultures, a dose-response curve was automatically generated using nonlinear regression analysis. Three reference parameters were calculated (NCI algorithm) by automatic interpolation: GI50=concentration that produces 50% growth inhibition; TGI=total growth inhibition (cytostatic effect) and LC50=concentration that produces 50% net cell killing (cytotoxic effect).

MDA-MB-231 = details: Homo sapiens; for CC50: read-out: LC50; for GI50: concentration that produces 50% growth inhibition; for IC (total growth inhibition): read-out: TGI
Excerpt: as §1, §2, §3, §4, §5, §6

HT29 = details: Homo sapiens; for CC50: HT-29, 48 h, read-out: LC50; for GI50 / IC (total growth inhibition): HT-29, HT29, 48 hours exposure; for GI50: concentration that produces 50% growth inhibition; for IC (total growth inhibition): total growth inhibition (cytostatic effect), read-out: TGI
Excerpt: as §1, §2, §3, §4, §5, §6

[1] = A549, 48 hours exposure, total growth inhibition (cytostatic effect)
[2] = MDA-MB-231, 48 hours exposure, total growth inhibition (cytostatic effect)

Row | Structure (SMILES) | CC50 (A549; A549, 48 h) [µM] | GI50 (A549; A549, 48 hours exposure) [µM] | IC (total growth inhibition) (A549; [1]) [µM] | CC50 (MDA-MB-231; MDA-MB-231, 48 h) [µM] | GI50 (MDA-MB-231; MDA-MB-231, 48 hours exposure) [µM] | IC (total growth inhibition) (MDA-MB-231; [2]) [µM] | CC50 (HT29) [µM] | GI50 (HT29) [µM] | IC (total growth inhibition) (HT29) [µM] | IC (total growth inhibition) (MDA-MB-231; MDA-MB-231, 48 h) [µM] | IC (total growth inhibition) (A549; A549, 48 h) [µM]
1 | COC1=CC[C@@H]([C@@H](C)/C=C\C=C/C(=O)N[C@H](C(=O)N/C=C\C[C@@H](O)C/C=C(\C)Cl)C(C)(C)C)OC1=O [Compound 68] | > 19.1 | 1.47 | 4.21 | 6.5 | 0.784 | 1.49 | > 19.1 | 0.459 | 0.707 |  | 
2 | C/C=C\C[C@@H](C/C=C\NC(=O)[C@@H](NC(=O)C#C/C=C\C(C)=C\[C@H](C)[C@@H]1CC=C(OC)C(=O)O1)C(C)(C)C)OC(N)=O [Compound 81] | > 17.6 | 2.28 | 8.43 | > 17.6 | 2.98 |  | > 17.6 | 1.26 | 2.98 | > 17.6 | 
3 | COC1=CC[C@@H]([C@@H](C)/C=C(C)/C=C\C#CC(=O)N[C@H](C(=O)N/C=C\C[C@@H](O)C/C=C(\C)Cl)C(C)(C)C)OC1=O [Compound 65a] | 11.8 | 3.39 | 6.24 | > 17.8 | 3.56 | 9.98 | 7.31 | 1.78 | 3.03 |  | 
4 | COC1=CC[C@@H]([C@@H](C)/C=C\C=C/C(=O)N[C@H](C(=O)N/C=C\C[C@H](C/C=C(\C)Cl)OC(N)=O)C(C)(C)C)OC1=O [Compound 69] | > 17.7 | 0.23 |  | 8.13 | 0.336 | 1.63 | > 17.7 | 0.173 | 0.424 |  | > 17.7
5 | COC1=CC[C@@H]([C@@H](C)/C=C(C)/C=C\C#CCCC(=O)N[C@H](C(=O)N/C=C\C[C@@H](O)C/C=C(\C)Cl)C(C)(C)C)OC1=O [Compound 99] | 12.2 | 3.06 | 6.62 | 13.2 | 2.72 | 6.11 | 5.77 | 0.9 | 2.21 |  | 
